In PMC6925188, “PBRM1 acts as a p53 lysine-acetylation reader to suppress renal tumor growth” (Nature Communications, 2019):
Marks after values point to notes of the source that are not given here.

Legend:
[1] = system: ACHN cells; assay: Cell cycle analysis, ACHN shRNA knockdown cells; type: cell-based; parameters: Sub-G1: unit not given here; conditions: 50 μM
Method: Lysates were analyzed via immunoblots. f, g, h. ACHN control, p53 and p21 shRNA knockdown cells were harvested for […]
Representative data is shown i n g. […] Source data are provided as a Source

[2] = system: RCC4 cells; assay: RT-qPCR of p53 targets, RCC4 cells; type: cell-based; parameters: CDKN1A expression / MDM2 expression / GADD45A expression / PUMA expression / NOXA expression: reference not given here; conditions: 24 h; for CDKN1A expression / GADD45A expression / MDM2 expression / NOXA expression / PUMA expression: 100 μM
Method: Lysates were analyzed by immunoblots. c RCC4 cells with or without p53 KO were transfected with vector or Flag-PBRM1 at the indicated amounts. […] Cells were harvested for RT-qPCR (g) or ChIP followed by qPCR (h). […] Representative data is shown in i. Quantification of cell cycle phase is shown in j. Source data are provided as a Source Data file.
Total RNA was extracted from cells using the RNeasy Plus Mini Kit (74136, Qiagen), and the concentration was measured using the NanoDrop ND-1000 system (Thermo Scientific). Reverse transcription was performed using the First Strand cDNA Synthesis Kit (NP100042, Origen) with 0.5 µg total RNA. Real-time PCR was performed with Maxima SYBR Green qPCR Master Mix (K0253, Thermo Scientific) using the Roche LightCycler 480. […] GAPDH was used as an internal control. Data are shown as mean ± SEM for three independent experiments.

COc1cc([C@@H]2c3cc4c(cc3[C@@H](O[C@@H]3O[C@@H]5CO[C@@H](C)O[C@H]5[C@H](O)[C@H]3O)[C@H]3COC(=O)[C@H]23)OCO4)cc(OC)c1O [Etoposide]
G0/G1 ([1]; ACHN-sh-PBRM1#1, assay 1): 10.9
G2/M ([1]; ACHN-sh-PBRM1#1, assay 1): 66.9
S ([1]; ACHN-sh-PBRM1#1, assay 1): 15.8
Sub-G1 ([1]; ACHN-sh-PBRM1#1, assay 1): 5.5
G0/G1 ([1]; ACHN-sh-PBRM1#1, assay 2): 15.3
G2/M ([1]; ACHN-sh-PBRM1#1, assay 2): 36.8
S ([1]; ACHN-sh-PBRM1#1, assay 2): 33.9
Sub-G1 ([1]; ACHN-sh-PBRM1#1, assay 2): 12.3
G0/G1 ([1]; ACHN-sh-PBRM1#1, assay 3): 16.9
G2/M ([1]; ACHN-sh-PBRM1#1, assay 3): 39.4
S ([1]; ACHN-sh-PBRM1#1, assay 3): 35.3
Sub-G1 ([1]; ACHN-sh-PBRM1#1, assay 3): 6.8
G0/G1 ([1]; ACHN-sh-PBRM1#2, assay 1): 50.7
G2/M ([1]; ACHN-sh-PBRM1#2, assay 1): 29.4
S ([1]; ACHN-sh-PBRM1#2, assay 1): 17.3
Sub-G1 ([1]; ACHN-sh-PBRM1#2, assay 1): 1.2
G0/G1 ([1]; ACHN-sh-PBRM1#2, assay 2): 45.9
G2/M ([1]; ACHN-sh-PBRM1#2, assay 2): 20.7
S ([1]; ACHN-sh-PBRM1#2, assay 2): 26.7
Sub-G1 ([1]; ACHN-sh-PBRM1#2, assay 2): 5
G0/G1 ([1]; ACHN-sh-PBRM1#2, assay 3): 48.7
G2/M ([1]; ACHN-sh-PBRM1#2, assay 3): 22.6
S ([1]; ACHN-sh-PBRM1#2, assay 3): 24.8
Sub-G1 ([1]; ACHN-sh-PBRM1#2, assay 3): 1.6
G0/G1 ([1]; ACHN-sh-SCR, assay 1): 54.8
G2/M ([1]; ACHN-sh-SCR, assay 1): 26.5
S ([1]; ACHN-sh-SCR, assay 1): 16.1
Sub-G1 ([1]; ACHN-sh-SCR, assay 1): 1.5
G0/G1 ([1]; ACHN-sh-SCR, assay 2): 51.3
G2/M ([1]; ACHN-sh-SCR, assay 2): 21.3
S ([1]; ACHN-sh-SCR, assay 2): 25.2
Sub-G1 ([1]; ACHN-sh-SCR, assay 2): 1.4
G0/G1 ([1]; ACHN-sh-SCR, assay 3): 43.6
G2/M ([1]; ACHN-sh-SCR, assay 3): 27
S ([1]; ACHN-sh-SCR, assay 3): 25.3
Sub-G1 ([1]; ACHN-sh-SCR, assay 3): 2.1
G0/G1 ([1]; ACHN-sh-p21#1, assay 1): 40.5
G2/M ([1]; ACHN-sh-p21#1, assay 1): 38.3
S ([1]; ACHN-sh-p21#1, assay 1): 18.7
Sub-G1 ([1]; ACHN-sh-p21#1, assay 1): 1.3
G0/G1 ([1]; ACHN-sh-p21#1, assay 2): 47.7
G2/M ([1]; ACHN-sh-p21#1, assay 2): 23.1
S ([1]; ACHN-sh-p21#1, assay 2): 27.2
Sub-G1 ([1]; ACHN-sh-p21#1, assay 2): 1
G0/G1 ([1]; ACHN-sh-p21#1, assay 3): 48.6
G2/M ([1]; ACHN-sh-p21#1, assay 3): 22.6
S ([1]; ACHN-sh-p21#1, assay 3): 26
Sub-G1 ([1]; ACHN-sh-p21#1, assay 3): 0.8
G0/G1 ([1]; ACHN-sh-p21#2, assay 1): 14.3
G2/M ([1]; ACHN-sh-p21#2, assay 1): 65.7
S ([1]; ACHN-sh-p21#2, assay 1): 15.1
Sub-G1 ([1]; ACHN-sh-p21#2, assay 1): 4
G0/G1 ([1]; ACHN-sh-p21#2, assay 2): 11.9
G2/M ([1]; ACHN-sh-p21#2, assay 2): 48.4
S ([1]; ACHN-sh-p21#2, assay 2): 31.1
Sub-G1 ([1]; ACHN-sh-p21#2, assay 2): 6.9
G0/G1 ([1]; ACHN-sh-p21#2, assay 3): 14.7
G2/M ([1]; ACHN-sh-p21#2, assay 3): 42.4
S ([1]; ACHN-sh-p21#2, assay 3): 35.8
Sub-G1 ([1]; ACHN-sh-p21#2, assay 3): 5.3
G0/G1 ([1]; ACHN-sh-p53, assay 1): 6.3
G2/M ([1]; ACHN-sh-p53, assay 1): 68.3
S ([1]; ACHN-sh-p53, assay 1): 16.5
Sub-G1 ([1]; ACHN-sh-p53, assay 1): 6.2
G0/G1 ([1]; ACHN-sh-p53, assay 2): 11.6
G2/M ([1]; ACHN-sh-p53, assay 2): 30
S ([1]; ACHN-sh-p53, assay 2): 34.2
Sub-G1 ([1]; ACHN-sh-p53, assay 2): 20.3
G0/G1 ([1]; ACHN-sh-p53, assay 3): 10.6
G2/M ([1]; ACHN-sh-p53, assay 3): 39
S ([1]; ACHN-sh-p53, assay 3): 34.6
Sub-G1 ([1]; ACHN-sh-p53, assay 3): 11.3
expression of p53 downstream targets with PBRM1 restoration ([2]; 100 μM etoposide, RCC4): up-regulated by restoration of PBRM1 but not PBRM1 BD4*
CDKN1A expression ([2]; RCC4-GFP, assay 1): 49.6546
GADD45A expression ([2]; RCC4-GFP, assay 1): 6.5687
MDM2 expression ([2]; RCC4-GFP, assay 1): 12.9102
NOXA expression ([2]; RCC4-GFP, assay 1): 7.6934
PUMA expression ([2]; RCC4-GFP, assay 1): 10.0905
CDKN1A expression ([2]; RCC4-GFP, assay 2): 44.3116
GADD45A expression ([2]; RCC4-GFP, assay 2): 5.0617
MDM2 expression ([2]; RCC4-GFP, assay 2): 12.821
NOXA expression ([2]; RCC4-GFP, assay 2): 9.2403
PUMA expression ([2]; RCC4-GFP, assay 2): 12.0208
CDKN1A expression ([2]; RCC4-GFP, assay 3): 55.0506
GADD45A expression ([2]; RCC4-GFP, assay 3): 5.7956
MDM2 expression ([2]; RCC4-GFP, assay 3): 12.4332
NOXA expression ([2]; RCC4-GFP, assay 3): 9.8148
PUMA expression ([2]; RCC4-GFP, assay 3): 9.8829
CDKN1A expression ([2]; RCC4-PBRM1-BD4*, assay 1): 45.9041
GADD45A expression ([2]; RCC4-PBRM1-BD4*, assay 1): 6.7644
MDM2 expression ([2]; RCC4-PBRM1-BD4*, assay 1): 11.4101
NOXA expression ([2]; RCC4-PBRM1-BD4*, assay 1): 9.833
PUMA expression ([2]; RCC4-PBRM1-BD4*, assay 1): 10.713
CDKN1A expression ([2]; RCC4-PBRM1-BD4*, assay 2): 43.4526
GADD45A expression ([2]; RCC4-PBRM1-BD4*, assay 2): 6.5588
MDM2 expression ([2]; RCC4-PBRM1-BD4*, assay 2): 13.589
NOXA expression ([2]; RCC4-PBRM1-BD4*, assay 2): 9.0815
PUMA expression ([2]; RCC4-PBRM1-BD4*, assay 2): 12.1902
CDKN1A expression ([2]; RCC4-PBRM1-BD4*, assay 3): 51.1258
GADD45A expression ([2]; RCC4-PBRM1-BD4*, assay 3): 6.6252
MDM2 expression ([2]; RCC4-PBRM1-BD4*, assay 3): 12.0244
NOXA expression ([2]; RCC4-PBRM1-BD4*, assay 3): 9.5044
PUMA expression ([2]; RCC4-PBRM1-BD4*, assay 3): 12.2164
CDKN1A expression ([2]; RCC4-PBRM1, assay 1): 70.754
GADD45A expression ([2]; RCC4-PBRM1, assay 1): 7.8588
MDM2 expression ([2]; RCC4-PBRM1, assay 1): 16.2786
NOXA expression ([2]; RCC4-PBRM1, assay 1): 11.5749
PUMA expression ([2]; RCC4-PBRM1, assay 1): 13.0108
CDKN1A expression ([2]; RCC4-PBRM1, assay 2): 72.9408
GADD45A expression ([2]; RCC4-PBRM1, assay 2): 6.8115
MDM2 expression ([2]; RCC4-PBRM1, assay 2): 15.8174
NOXA expression ([2]; RCC4-PBRM1, assay 2): 11.4155
PUMA expression ([2]; RCC4-PBRM1, assay 2): 15.9071
CDKN1A expression ([2]; RCC4-PBRM1, assay 3): 96.454
GADD45A expression ([2]; RCC4-PBRM1, assay 3): 7.8052
MDM2 expression ([2]; RCC4-PBRM1, assay 3): 16.0682
NOXA expression ([2]; RCC4-PBRM1, assay 3): 13.296
PUMA expression ([2]; RCC4-PBRM1, assay 3): 14.8041
